We go through six compounds from publication PMC11530689, “Anti colorectal cancer activity and in silico studies of novel pyridine nortopsentin analog as cyclin dependent kinase 6 inhibitor” (Scientific Reports, 2024).

The structures appear in SMILES notation.

Holding throughout (assay): NCI 60 cell line screen
Common to all, as to type: cell-based

One assay relates to ACHN. The settings on record: Renal Cancer, single concentration 10^−5 M. An outline of the steps: (§1)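 Screened by the US National Cancer Institute at a single concentration of 10^-5 M across its panel of 60 human cancer cell lines. Values reflect one-dose cytotoxic activity.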
In the next assay the test system is CCRF-CEM. The settings on record: Leukemia, single concentration 10^−5 M. An outline of the steps: as §1
In the next assay the test system is DU-145. To be noted: DU-145, Prostate Cancer; single concentration 10^−5 M. Put shortly: as §1
Another assay relates to HL-60 (TB). The settings on record: Leukemia, single concentration 10^−5 M. An outline of the steps:
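Readout is cytotoxic activity at one fixed dose (10^-5 M), measured by NCI within its 60-line tumour panel.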

In a further assay the test system is HOP-62. To be noted: HOP-62, Non-Small Cell Lung Cancer; single concentration 10^−5 M. An outline of the steps: as §1
Another assay has as its system HOP-92. The settings on record: HOP-92, Non-Small Cell Lung Cancer; single concentration 10^−5 M. Put shortly: as §1
A further assay has as its system HS 578T. To be noted: Breast Cancer, single concentration 10^−5 M. Put shortly:
as §1

Another assay has as its system K-562. The settings on record: K-562, Leukemia; single concentration 10^−5 M. An outline of the steps:
as §1

Another assay concerns LOX IMVI. The settings on record: Melanoma, single concentration 10^−5 M. Put shortly:
as §1

A further assay deals with MALME-3M. The settings on record: Melanoma, single concentration 10^−5 M. An outline of the steps: as §1
The subject of a further assay is MOLT-4. To be noted: MOLT-4, Leukemia; single concentration 10^−5 M. An outline of the steps:
as §1

For a further assay, the system named is NCI-H322M. The settings on record: Non-Small Cell Lung Cancer, single concentration 10^−5 M. An outline of the steps:
as §1

The next assay deals with NCI-H460. To be noted: NCI-H460, Non-Small Cell Lung Cancer; single concentration 10^−5 M. Put shortly: as §1
The next assay has as its system NCI-H522. The settings on record: NCI-H522, Non-Small Cell Lung Cancer; single concentration 10^−5 M. Put shortly: as §1
In a further assay the test system is OVCAR-5. The settings on record: OVCAR-5, Ovarian Cancer; single concentration 10^−5 M. An outline of the steps: as §1
The next assay deals with SF-268. The settings on record: SF-268, CNS Cancer; single concentration 10^−5 M. Put shortly: as §1
In the next assay the test system is SF-295. The settings on record: SF-295, CNS Cancer; single concentration 10^−5 M. An outline of the steps:
as §1

The subject of another assay is SK-MEL-28. To be noted: SK-MEL-28, Melanoma; single concentration 10^−5 M. An outline of the steps:
as §1

The subject of a further assay is SK-MEL-2. To be noted: SK-MEL-2, Melanoma; single concentration 10^−5 M. Put shortly:
as §1

In another assay the test system is SN12C. To be noted: Renal Cancer, single concentration 10^−5 M. Put shortly:
as §1

The next assay deals with SNB-19. To be noted: SNB-19, CNS Cancer; single concentration 10^−5 M. Put shortly:
as §1

The test system of a further assay is SR. The settings on record: Leukemia, single concentration 10^−5 M. An outline of the steps: as §1
For another assay, the system named is SW-620. The settings on record: SW-620, Colon Cancer; single concentration 10^−5 M. Put shortly:
as §1

A further assay deals with T-47D. The settings on record: Breast Cancer, single concentration 10^−5 M. Put shortly: as §1

As to `N#Cc1c(-c2ccccc2)cc(-c2c[nH]c3ccccc23)nc1-c1c[nH]c2ccccc12` [4a], the Growth % in the assay with ACHN turned out to be 96.37%; with CCRF-CEM, 102.65%; with DU-145, 108.34%; in the assay with HL-60 (TB) it was 103.72%; with HOP-62, 92.66%; in the assay with HOP-92, 92.10%. The Growth % with HS 578T was found to be 93.45%; in the assay with K-562 it was 100.60%; in the assay on LOX IMVI, 100.06%; with MALME-3M, 99.77%; with MOLT-4 it was 102.45%; with NCI-H322M, 105.41%. Moreover, the Growth % came to 106.27% in the assay on NCI-H460; 97.10% in the assay with NCI-H522; 103.05% in the assay on OVCAR-5; 96.15% with SF-268; 96.36% with SF-295; 109.51% in the assay on SK-MEL-28. For the same compound, the Growth % came to 97.65% with SK-MEL-2; 95.61% with SN12C; 97.62% with SNB-19; 96.68% with SR; 101.78% in the assay with SW-620; 86.69% with T-47D.
Turning to `N#Cc1c(-c2ccc(Br)cc2)cc(-c2c[nH]c3ccccc23)nc1-c1c[nH]c2ccccc12` [4b], the Growth % with ACHN worked out at 99.45%; with CCRF-CEM it was 102.80%; in the assay on DU-145, 107.37%; in the assay on HL-60 (TB) it was 102.74%; in the assay with HOP-62, 98.17%; with HOP-92, 92.57%. The Growth % in the assay with HS 578T worked out at 97.14%; in the assay with K-562 it was 96.82%; in the assay with LOX IMVI it was 99.48%; in the assay on MALME-3M, 103.25%; in the assay on MOLT-4 it was 99.47%; in the assay with NCI-H322M, 104.62%. Besides, the Growth % with NCI-H460 was 106.47%; with NCI-H522, 94.73%; with OVCAR-5, 107.40%; in the assay on SF-268, 100.28%; in the assay on SF-295, 99.37%; in the assay on SK-MEL-28, 112.22%. In addition, the Growth % in the assay with SK-MEL-2 worked out at 95.21%; with SN12C, 96.36%; in the assay on SNB-19 it was 98.35%; in the assay with SR, 94.65%; in the assay with SW-620, 105.18%; in the assay on T-47D, 85.37%.
Consider `N#Cc1c(-c2ccc(Cl)cc2)cc(-c2c[nH]c3ccccc23)nc1-c1c[nH]c2ccccc12` [4c], for which the Growth % in the assay with ACHN is given as 101.81%; in the assay on CCRF-CEM it was 101.97%; in the assay with DU-145, 108.08%; in the assay with HL-60 (TB) it was 102.90%; in the assay with HOP-62 it was 93.62%; in the assay with HOP-92, 99.01%. Besides, the Growth % in the assay on HS 578T was 100.65%; with K-562, 97.57%; in the assay on LOX IMVI, 101.39%; in the assay with MALME-3M, 107.80%; with MOLT-4, 99.33%; with NCI-H322M, 103.02%. In addition, the Growth % in the assay with NCI-H460 was 106.15%; in the assay with NCI-H522, 96.57%; in the assay on OVCAR-5, 105.15%; in the assay with SF-268, 103.64%; in the assay on SF-295, 99.60%; in the assay on SK-MEL-28, 103.30%. Further, the Growth % came out at 103.64% with SK-MEL-2; 97.84% in the assay with SN12C; 101.34% in the assay with SNB-19; 98.46% in the assay with SR; 106.55% in the assay on SW-620; 100.54% in the assay on T-47D.
Consider `N#Cc1c(-c2ccc(F)cc2)cc(-c2c[nH]c3ccccc23)nc1-c1c[nH]c2ccccc12` [4d], for which the Growth % in the assay with ACHN turned out to be 101.89%; with CCRF-CEM, 102.09%; with DU-145, 106.26%; in the assay on HL-60 (TB), 98.89%; in the assay with HOP-62 it was 100.69%; in the assay with HOP-92, 93.44%. In addition, the Growth % in the assay with HS 578T was found to be 95.18%; in the assay on K-562, 104.54%; in the assay with LOX IMVI, 107.36%; in the assay on MALME-3M, 101.85%; with MOLT-4 it was 103.02%; in the assay with NCI-H322M, 106.25%. Also, the Growth % in the assay with NCI-H460 was found to be 104.14%; in the assay on NCI-H522 it was 97.04%; in the assay with OVCAR-5, 109.33%; in the assay with SF-268, 101.12%; with SF-295, 102.68%; in the assay on SK-MEL-28, 106.51%. Besides, the Growth % was 96.13% with SK-MEL-2; 98.76% in the assay with SN12C; 102.08% with SNB-19; 89.11% with SR; 106.63% in the assay on SW-620; 89.92% in the assay on T-47D.
Consider `COc1ccc(-c2cc(-c3c[nH]c4ccccc34)nc(-c3c[nH]c4ccccc34)c2C#N)cc1` [4e], for which the Growth % in the assay with ACHN was found to be 95.12%; with CCRF-CEM, 101.65%; with DU-145, 108.02%; in the assay with HL-60 (TB), 106.85%; with HOP-62, 90.00%; in the assay with HOP-92 it was 82.07%. Also, the Growth % was 100.69% in the assay on HS 578T; 96.99% in the assay on K-562; 86.06% with LOX IMVI; 113.82% in the assay with MALME-3M; 94.10% in the assay with MOLT-4; 108.08% with NCI-H322M. The Growth % in the assay on NCI-H460 is on record as 107.18%; with NCI-H522, 92.71%; in the assay with OVCAR-5 it was 103.69%; in the assay on SF-268, 105.10%; in the assay on SF-295 it was 95.83%; in the assay with SK-MEL-28 it was 108.94%. Besides, the Growth % was 100.09% with SK-MEL-2; 99.19% in the assay with SN12C; 102.42% in the assay on SNB-19; 89.59% with SR; 113.43% in the assay with SW-620; 86.61% in the assay with T-47D.
For the compound `COc1cc(OC)cc(-c2cc(-c3c[nH]c4ccccc34)nc(-c3c[nH]c4ccccc34)c2C#N)c1` [4f], the Growth % is on record as 97.24% with ACHN; 101.42% in the assay with DU-145; 101.74% in the assay on HL-60 (TB); 96.31% with HOP-62; 95.02% with HOP-92; 102.35% in the assay with HS 578T. Besides, the Growth % worked out at 93.22% in the assay with K-562; 82.70% with LOX IMVI; 108.42% in the assay on MALME-3M; 98.62% in the assay on MOLT-4; 104.89% with NCI-H322M; 103.37% with NCI-H460. Further, the Growth % with NCI-H522 came to 92.06%; with OVCAR-5, 108.89%; in the assay on SF-268 it was 99.97%; with SF-295, 101.07%; with SK-MEL-28 it was 100.94%; in the assay on SK-MEL-2, 88.37%. Moreover, the Growth % in the assay with SN12C worked out at 95.11%; in the assay with SNB-19, 96.57%; in the assay with SR, 81.27%; in the assay on SW-620, 102.51%; in the assay on T-47D, 98.31%.
